{
  "source": "ChEMBL document CHEMBL3885881",
  "about": "“DrugMatrix”",
  "species": "Rattus norvegicus",
  "experiment": "DrugMatrix - Regimen: Daily Repeat",
  "assay_type": "toxicity, organism-based, Sprague-Dawley",
  "set-up": "regimen Daily Repeat, gender Male, age 6-8 weeks",
  "conditions": "in vivo, po, route oral GAVAGE, […]; for CHOLESTEROL / CREATINE PHOSPHOKINASE / CREATININE / GLUCOSE / PHOSPHORUS / POTASSIUM / SODIUM / TOTAL BILIRUBIN / TOTAL PROTEIN / ALANINE AMINOTRANSFERASE / ALBUMIN / ALKALINE PHOSPHATASE / ASPARTATE AMINOTRANSFERASE / BLOOD UREA NITROGEN / CHLORIDE: tissue Plasma; for ABSOLUTE BASOPHIL / BASOPHIL / EOSINOPHIL / ERYTHROCYTE COUNT / HEMATOCRIT / HEMOGLOBIN / LEUKOCYTE COUNT / LYMPHOCYTE / MEAN CORPUSCULAR HEMOGLOBIN / MEAN CORPUSCULAR HEMOGLOBIN CONCENTRATION / MEAN CORPUSCULAR VOLUME / MONOCYTE / NEUTROPHIL / PLATELET COUNT: tissue Blood",
  "key": {"[1]": {"conditions": "35 mg/kg, 120 h, dose level Low, time 5 day"}, "[2]": {"conditions": "400 mg/kg, 72 h, dose level High, time 3 day"}, "[3]": {"conditions": "400 mg/kg, 120 h, dose level High, time 5 day"}},
  "data": [
    {"smiles": "Cc1ccc(-c2cc(C(F)(F)F)nn2-c2ccc(S(N)(=O)=O)cc2)cc1", "note": "[CELECOXIB]", "values": [
      {"measurement": "CHOLESTEROL", "setting": "[1]", "result": 76.67, "unit": "mg/dL"},
      {"measurement": "CREATINE PHOSPHOKINASE", "setting": "[1]", "result": 179.33, "unit": "u/L"},
      {"measurement": "CREATININE", "setting": "[1]", "result": 0.37, "unit": "mg/dL"},
      {"measurement": "GLUCOSE", "setting": "[1]", "result": 187.33, "unit": "mg/dL"},
      {"measurement": "PHOSPHORUS", "setting": "[1]", "result": 11.8, "unit": "mg/dL"},
      {"measurement": "POTASSIUM", "setting": "[1]", "result": 6.73, "unit": "MEQ/L"},
      {"measurement": "SODIUM", "setting": "[1]", "result": 146, "unit": "MEQ/L"},
      {"measurement": "TOTAL BILIRUBIN", "setting": "[1]", "result": 0.33, "unit": "mg/dL"},
      {"measurement": "TOTAL PROTEIN", "setting": "[1]", "result": 5.9, "unit": "G/DL"},
      {"measurement": "ABSOLUTE BASOPHIL", "setting": "[2]", "result": 30, "unit": "cells/µL"},
      {"measurement": "BASOPHIL", "setting": "[2]", "result": 0.27, "unit": "%"},
      {"measurement": "EOSINOPHIL", "setting": "[2]", "result": 0.6, "unit": "%"},
      {"measurement": "ERYTHROCYTE COUNT", "setting": "[2]", "result": 6.71, "unit": "x10E6/uL"},
      {"measurement": "HEMATOCRIT", "setting": "[2]", "result": 42.57, "unit": "%"},
      {"measurement": "HEMOGLOBIN", "setting": "[2]", "result": 14.27, "unit": "G/DL"},
      {"measurement": "LEUKOCYTE COUNT", "setting": "[2]", "result": 12.22, "unit": "x10E3/uL"},
      {"measurement": "LYMPHOCYTE", "setting": "[2]", "result": 70.53, "unit": "%"},
      {"measurement": "MEAN CORPUSCULAR HEMOGLOBIN", "setting": "[2]", "result": 21.27, "unit": "pg"},
      {"measurement": "MEAN CORPUSCULAR HEMOGLOBIN CONCENTRATION", "setting": "[2]", "result": 33.53, "unit": "G/DL"},
      {"measurement": "MEAN CORPUSCULAR VOLUME", "setting": "[2]", "result": 63.47, "unit": "fL"},
      {"measurement": "MONOCYTE", "setting": "[2]", "result": 3.27, "unit": "%"},
      {"measurement": "NEUTROPHIL", "setting": "[2]", "result": 24.33, "unit": "%"},
      {"measurement": "PLATELET COUNT", "setting": "[2]", "result": 1571.33, "unit": "x10E3/uL"},
      {"measurement": "ALANINE AMINOTRANSFERASE", "setting": "[2]", "result": 62, "unit": "u/L"},
      {"measurement": "ALBUMIN", "setting": "[2]", "result": 3.4, "unit": "G/DL"},
      {"measurement": "ALKALINE PHOSPHATASE", "setting": "[2]", "result": 437.67, "unit": "u/L"},
      {"measurement": "ASPARTATE AMINOTRANSFERASE", "setting": "[2]", "result": 74.67, "unit": "u/L"},
      {"measurement": "BLOOD UREA NITROGEN", "setting": "[2]", "result": 9.33, "unit": "mg/dL"},
      {"measurement": "CHLORIDE", "setting": "[2]", "result": 106.67, "unit": "MEQ/L"},
      {"measurement": "CHOLESTEROL", "setting": "[2]", "result": 88.33, "unit": "mg/dL"},
      {"measurement": "CREATINE PHOSPHOKINASE", "setting": "[2]", "result": 191.67, "unit": "u/L"},
      {"measurement": "CREATININE", "setting": "[2]", "result": 0.33, "unit": "mg/dL"},
      {"measurement": "GLUCOSE", "setting": "[2]", "result": 177.33, "unit": "mg/dL"},
      {"measurement": "PHOSPHORUS", "setting": "[2]", "result": 12.6, "unit": "mg/dL"},
      {"measurement": "POTASSIUM", "setting": "[2]", "result": 6.63, "unit": "MEQ/L"},
      {"measurement": "SODIUM", "setting": "[2]", "result": 145, "unit": "MEQ/L"},
      {"measurement": "TOTAL BILIRUBIN", "setting": "[2]", "result": 0.33, "unit": "mg/dL"},
      {"measurement": "TOTAL PROTEIN", "setting": "[2]", "result": 5.53, "unit": "G/DL"},
      {"measurement": "ABSOLUTE BASOPHIL", "setting": "[3]", "result": 190, "unit": "cells/µL"},
      {"measurement": "BASOPHIL", "setting": "[3]", "result": 1.28, "unit": "%"},
      {"measurement": "EOSINOPHIL", "setting": "[3]", "result": 0.3, "unit": "%"},
      {"measurement": "ERYTHROCYTE COUNT", "setting": "[3]", "result": 6.61, "unit": "x10E6/uL"},
      {"measurement": "HEMATOCRIT", "setting": "[3]", "result": 42.7, "unit": "%"},
      {"measurement": "HEMOGLOBIN", "setting": "[3]", "result": 13.26, "unit": "G/DL"},
      {"measurement": "LEUKOCYTE COUNT", "setting": "[3]", "result": 18.19, "unit": "x10E3/uL"},
      {"measurement": "LYMPHOCYTE", "setting": "[3]", "result": 68.98, "unit": "%"},
      {"measurement": "MEAN CORPUSCULAR HEMOGLOBIN", "setting": "[3]", "result": 20.16, "unit": "pg"},
      {"measurement": "MEAN CORPUSCULAR HEMOGLOBIN CONCENTRATION", "setting": "[3]", "result": 31.14, "unit": "G/DL"},
      {"measurement": "MEAN CORPUSCULAR VOLUME", "setting": "[3]", "result": 64.7, "unit": "fL"},
      {"measurement": "MONOCYTE", "setting": "[3]", "result": 2.54, "unit": "%"},
      {"measurement": "NEUTROPHIL", "setting": "[3]", "result": 25.24, "unit": "%"},
      {"measurement": "PLATELET COUNT", "setting": "[3]", "result": 1512.2, "unit": "x10E3/uL"},
      {"measurement": "ALANINE AMINOTRANSFERASE", "setting": "[3]", "result": 41.6, "unit": "u/L"},
      {"measurement": "ALBUMIN", "setting": "[3]", "result": 3.44, "unit": "G/DL"},
      {"measurement": "ALKALINE PHOSPHATASE", "setting": "[3]", "result": 451.2, "unit": "u/L"},
      {"measurement": "ASPARTATE AMINOTRANSFERASE", "setting": "[3]", "result": 64.8, "unit": "u/L"},
      {"measurement": "BLOOD UREA NITROGEN", "setting": "[3]", "result": 11.2, "unit": "mg/dL"},
      {"measurement": "CHLORIDE", "setting": "[3]", "result": 105.8, "unit": "MEQ/L"},
      {"measurement": "CHOLESTEROL", "setting": "[3]", "result": 91.6, "unit": "mg/dL"},
      {"measurement": "CREATINE PHOSPHOKINASE", "setting": "[3]", "result": 166.4, "unit": "u/L"},
      {"measurement": "CREATININE", "setting": "[3]", "result": 0.34, "unit": "mg/dL"},
      {"measurement": "GLUCOSE", "setting": "[3]", "result": 185.8, "unit": "mg/dL"},
      {"measurement": "PHOSPHORUS", "setting": "[3]", "result": 12.94, "unit": "mg/dL"},
      {"measurement": "POTASSIUM", "setting": "[3]", "result": 7.1, "unit": "MEQ/L"},
      {"measurement": "SODIUM", "setting": "[3]", "result": 151, "unit": "MEQ/L"},
      {"measurement": "TOTAL BILIRUBIN", "setting": "[3]", "result": 0.2, "unit": "mg/dL"},
      {"measurement": "TOTAL PROTEIN", "setting": "[3]", "result": 5.9, "unit": "G/DL"}
    ]}
  ]
}
